{"source": "patent US9518026B2", "about": "“5-aminopyrazole-4-carboxamide inhibitors of CDPK1 from T. gondii and C. parvum” (UNIVERSITY OF WASHINGTON THROUGH ITS CENTER FOR …, priority 2013, dated 2016)", "key": {"P-gp": {"tested_on": "P-gp", "test": "Diffusion across the MDCK-PGP monolayer", "format": "in vitro ADME", "conditions": "dog, MDCK-MDR1; predicts CNS penetration"}, "[1]": {"test": "Stability (comparison of compound 39 and compound 9)"}, "[2]": {"test": "Oral availability (comparison of compound 39 and compound 9)", "format": "in vivo", "conditions": "compared with compound 9 (1294)"}, "C. parvum Iowa strain": {"tested_on": "C. parvum Iowa strain", "test": "C. parvum infection in mice (beige/SCID mouse model)", "conditions": "oral gavage 20 mg/kg 8 AM and 40 mg/kg 5 PM, days 5-14 after infection; each time point except Days 0 and 3; p≦0.05"}, "[3]": {"tested_on": "T. gondii Type 1 RH strain tachyzoites", "test": "T. gondii infection in mice", "format": "in vivo", "conditions": "CF-1 mice, peritoneal lavage day 8", "source_text": "1×10^5 T. gondii Type 1 RH strain tachyzoites expressing YFP were inoculated i.p. into 4-5 wk old female CF-1 mice (n=4). […] On day 8, the mice were killed, and underwent peritoneal lavage. T. gondii were enumerated via fluorescent microscopy and plotted, per mouse."}, "Prkcn": {"target": "Prkcn (Homo sapiens (Human), UniProt O94806)", "sequence (O94806 whole entry, looked up, species assumed)": "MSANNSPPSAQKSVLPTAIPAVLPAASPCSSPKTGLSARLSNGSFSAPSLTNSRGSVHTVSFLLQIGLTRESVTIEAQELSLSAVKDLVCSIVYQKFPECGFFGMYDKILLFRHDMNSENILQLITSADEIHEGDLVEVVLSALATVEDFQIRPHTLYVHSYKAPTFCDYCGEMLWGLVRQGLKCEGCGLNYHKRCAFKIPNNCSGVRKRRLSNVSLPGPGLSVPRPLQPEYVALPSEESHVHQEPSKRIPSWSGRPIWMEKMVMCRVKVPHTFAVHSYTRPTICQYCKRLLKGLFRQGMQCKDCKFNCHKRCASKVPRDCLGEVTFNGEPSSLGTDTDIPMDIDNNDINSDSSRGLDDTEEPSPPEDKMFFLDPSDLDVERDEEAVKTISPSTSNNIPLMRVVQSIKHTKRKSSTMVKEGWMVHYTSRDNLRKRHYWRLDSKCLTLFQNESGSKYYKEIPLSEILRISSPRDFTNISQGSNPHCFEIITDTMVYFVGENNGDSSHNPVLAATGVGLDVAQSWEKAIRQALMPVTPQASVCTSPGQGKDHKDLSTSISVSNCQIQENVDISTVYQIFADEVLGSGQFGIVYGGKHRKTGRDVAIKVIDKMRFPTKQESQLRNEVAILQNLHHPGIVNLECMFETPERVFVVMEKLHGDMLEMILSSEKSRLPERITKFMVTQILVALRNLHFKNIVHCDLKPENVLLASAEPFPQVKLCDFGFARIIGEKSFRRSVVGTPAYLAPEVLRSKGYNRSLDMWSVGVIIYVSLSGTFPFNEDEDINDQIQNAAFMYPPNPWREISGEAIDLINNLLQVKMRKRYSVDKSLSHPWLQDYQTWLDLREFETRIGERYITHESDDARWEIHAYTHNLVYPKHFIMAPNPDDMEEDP", "test": "Kinase panel selectivity: Prkcn", "format": "biochemical"}, "hERG": {"target": "hERG (Homo sapiens (Human), UniProt Q12809)", "sequence (Q12809 whole entry)": "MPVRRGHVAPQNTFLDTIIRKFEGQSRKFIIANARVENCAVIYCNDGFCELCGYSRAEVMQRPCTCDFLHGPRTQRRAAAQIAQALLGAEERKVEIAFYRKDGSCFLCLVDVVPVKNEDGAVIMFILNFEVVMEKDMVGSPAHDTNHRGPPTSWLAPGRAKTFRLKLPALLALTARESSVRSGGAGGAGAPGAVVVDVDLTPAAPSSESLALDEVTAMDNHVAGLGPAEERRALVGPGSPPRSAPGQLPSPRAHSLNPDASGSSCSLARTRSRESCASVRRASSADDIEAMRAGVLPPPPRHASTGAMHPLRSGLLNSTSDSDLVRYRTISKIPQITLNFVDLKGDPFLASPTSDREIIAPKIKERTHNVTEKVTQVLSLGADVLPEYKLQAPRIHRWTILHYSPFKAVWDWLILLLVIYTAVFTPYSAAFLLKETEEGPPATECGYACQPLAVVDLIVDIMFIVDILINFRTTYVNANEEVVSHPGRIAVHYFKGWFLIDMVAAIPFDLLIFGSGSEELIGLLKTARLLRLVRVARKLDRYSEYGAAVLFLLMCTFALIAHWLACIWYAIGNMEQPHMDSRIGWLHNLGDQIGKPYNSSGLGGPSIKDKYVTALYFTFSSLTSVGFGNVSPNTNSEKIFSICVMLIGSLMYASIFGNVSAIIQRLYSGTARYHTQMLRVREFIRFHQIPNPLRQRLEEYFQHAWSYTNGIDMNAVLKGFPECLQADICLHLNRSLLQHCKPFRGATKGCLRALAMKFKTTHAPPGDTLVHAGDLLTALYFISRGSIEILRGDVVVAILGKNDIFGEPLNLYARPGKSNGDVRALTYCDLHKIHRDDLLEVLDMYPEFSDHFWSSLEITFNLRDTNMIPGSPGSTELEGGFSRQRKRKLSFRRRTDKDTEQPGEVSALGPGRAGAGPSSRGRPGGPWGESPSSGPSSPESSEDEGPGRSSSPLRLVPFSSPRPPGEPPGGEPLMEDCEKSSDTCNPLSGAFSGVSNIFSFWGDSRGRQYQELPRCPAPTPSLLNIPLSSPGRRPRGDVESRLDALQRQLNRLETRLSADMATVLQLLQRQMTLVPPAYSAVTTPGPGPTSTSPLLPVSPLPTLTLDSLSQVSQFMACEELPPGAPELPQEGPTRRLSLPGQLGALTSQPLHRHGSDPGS", "test": "biochemical", "format": "binding"}, "Solubility at pH 6.5": {"test": "Solubility at pH 6.5", "format": "physicochemical"}, "[4]": {"test": "Cytotoxicity against CRL8155 cell line", "format": "cell-based", "conditions": "human, CRL8155 cells (lymphoblast, spleen)"}, "Kdr": {"target": "Kdr (Homo sapiens (Human), UniProt P35968)", "sequence (P35968 20-1356, species assumed)": "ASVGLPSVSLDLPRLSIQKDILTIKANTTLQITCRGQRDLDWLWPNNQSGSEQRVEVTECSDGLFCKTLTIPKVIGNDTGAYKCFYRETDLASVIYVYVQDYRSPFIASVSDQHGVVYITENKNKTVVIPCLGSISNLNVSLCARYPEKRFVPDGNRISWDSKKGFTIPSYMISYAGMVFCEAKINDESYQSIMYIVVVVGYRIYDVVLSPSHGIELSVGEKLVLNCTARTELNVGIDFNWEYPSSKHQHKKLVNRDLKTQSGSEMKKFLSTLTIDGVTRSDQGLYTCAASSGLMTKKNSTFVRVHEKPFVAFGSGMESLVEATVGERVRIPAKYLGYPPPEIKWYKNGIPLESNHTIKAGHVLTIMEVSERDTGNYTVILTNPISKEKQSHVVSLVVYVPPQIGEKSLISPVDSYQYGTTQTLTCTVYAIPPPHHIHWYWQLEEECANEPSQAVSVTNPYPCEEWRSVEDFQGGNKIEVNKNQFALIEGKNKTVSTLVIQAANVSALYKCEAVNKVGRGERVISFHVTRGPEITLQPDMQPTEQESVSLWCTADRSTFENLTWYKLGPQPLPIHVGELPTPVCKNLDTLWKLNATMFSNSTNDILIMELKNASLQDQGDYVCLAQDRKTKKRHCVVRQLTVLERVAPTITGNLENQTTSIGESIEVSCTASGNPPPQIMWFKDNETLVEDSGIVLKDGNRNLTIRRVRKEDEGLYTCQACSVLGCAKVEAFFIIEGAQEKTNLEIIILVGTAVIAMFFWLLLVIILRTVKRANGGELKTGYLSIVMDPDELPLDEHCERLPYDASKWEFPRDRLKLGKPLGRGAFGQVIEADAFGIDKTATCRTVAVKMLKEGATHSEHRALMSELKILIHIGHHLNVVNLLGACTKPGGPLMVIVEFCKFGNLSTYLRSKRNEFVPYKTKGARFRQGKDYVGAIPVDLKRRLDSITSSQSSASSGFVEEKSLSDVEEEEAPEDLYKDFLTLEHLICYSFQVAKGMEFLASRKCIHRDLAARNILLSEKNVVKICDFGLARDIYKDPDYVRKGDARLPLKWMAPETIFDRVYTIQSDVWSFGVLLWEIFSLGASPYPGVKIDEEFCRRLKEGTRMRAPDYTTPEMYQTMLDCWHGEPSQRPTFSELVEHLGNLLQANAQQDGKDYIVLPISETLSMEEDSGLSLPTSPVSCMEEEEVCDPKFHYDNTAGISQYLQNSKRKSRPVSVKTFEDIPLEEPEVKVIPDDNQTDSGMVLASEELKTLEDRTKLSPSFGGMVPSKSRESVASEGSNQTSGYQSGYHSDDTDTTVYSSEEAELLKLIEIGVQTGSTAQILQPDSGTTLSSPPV", "test": "Kinase panel selectivity: Kdr", "format": "biochemical"}, "C. parvum": {"tested_on": "C. parvum", "test": "Inhibition of C. parvum proliferation", "format": "cell-based", "conditions": "Cryptosporidium parvum; Table 4; read-out: Inhibit Parasite Prolif. (EC50, μM) C. parvum"}, "[5]": {"tested_on": "24 off-target liabilities (e.g. ion channels, G-protein receptors)", "test": "24 off-target liability screen", "conditions": "tested by AbbVie"}, "Cell toxicity in HepG2": {"test": "Cell toxicity in HepG2", "format": "cell-based", "conditions": "human, HepG2 cells (hepatocellular carcinoma); Table 4", "description": "All compounds were assayed for inhibition of TgCDPK1 and CpCDPK1 and on the small-gatekeeper (Thr) human kinases, Src and Abl. Human cell toxicity was evaluated in two human cell lines, HepG2 (hepatocellular carcinoma) and CRL8155 (lymphoblast, spleen). hERG inhibition has been associated with long Q-T syndrome (cardiotoxicity), and the compounds were evaluated for hERG inhibitory activity."}, "[6]": {"tested_on": "80 human protein kinases (hPKs)", "test": "AbbVie panel of 80 human protein kinases", "format": "biochemical", "conditions": "at levels up to 3 μM; tested by AbbVie"}}}
{"smiles": "CCOc1ccc2cc(-c3nn(C(C)(C)C)c(N)c3C(N)=O)cnc2c1", "note": "[Compound 39, 5-amino-1-(tert-butyl)-3-(7-ethoxyquinolin-3-yl)-1H-pyrazole-4-carboxamide]", "values": [{"measurement": "Papp", "setting": "P-gp", "result": 56.3, "unit": "×10⁻⁶ cm/s"}, {"measurement": "stability (in words)", "setting": "[1]", "result": "good stability"}, {"measurement": "oral availability (in words)", "setting": "[2]", "result": "higher oral availability"}, {"measurement": "oocysts shed in mouse stool, treated vs vehicle", "setting": "C. parvum Iowa strain", "result": "the difference was significant"}, {"measurement": "mean parasite burden decreased", "setting": "[3]; oral gavage 5/10 mg/kg [AM/PM] for 5 d", "result": 69, "unit": "%"}, {"measurement": "mean parasite burden decreased", "setting": "[3]; oral gavage 20/40 mg/kg [AM/PM] for 5 d", "result": 93, "unit": "%"}, {"measurement": "IC50", "setting": "Prkcn", "result": 1110, "unit": "nM"}, {"measurement": "Ki", "setting": "Prkcn", "result": 427, "unit": "nM"}, {"measurement": "hERG inhibitory activity (in words)", "setting": "hERG", "result": "no hERG inhibitory activity"}, {"measurement": "solubility (in words)", "setting": "Solubility at pH 6.5", "result": "good solubility"}, {"measurement": "EC50", "setting": "[4]; Table 2, read-out: Cytotoxicity (CRL8155) EC50", "result": "> 30", "unit": "µM"}, {"measurement": "EC50", "setting": "[4]; Table 3, read-out: Cytotoxicity (CRL8155) EC50", "result": "> 30", "unit": "µM"}, {"measurement": "EC50", "setting": "[4]; Table 4, read-out: Cell toxicity (EC50, μM) CRL 8155", "result": "> 40", "unit": "µM"}, {"measurement": "IC50", "setting": "Kdr", "result": 2460, "unit": "nM"}, {"measurement": "Ki", "setting": "Kdr", "result": 569, "unit": "nM"}, {"measurement": "EC50", "setting": "C. parvum", "result": 0.05, "unit": "µM"}, {"measurement": "signal in 24 off-target liability screen", "setting": "[5]", "result": "no signal was detected"}, {"measurement": "EC50", "setting": "Cell toxicity in HepG2", "result": "> 40", "unit": "µM"}, {"measurement": "inhibition of human protein kinases (panel of 80 hPKs)", "setting": "[6]", "result": "No hPKs were inhibited"}]}
